Measurements reported in paper PMC7369637, “Inhibition of Resistance-Refractory P. falciparum Kinase PKG Delivers Prophylactic, Blood Stage, and Transmission-Blocking Antiplasmodial Activity” (Cell Chemical Biology, 2020).

Legend:
Assay in all cases: Compound susceptibility assay using cKD lines (72 h, Renilla luciferase)
Assay type in all cases: cell-based, Plasmodium falciparum
AAT cKD line = settings: for IC50: Plasmodium falciparum, AAT cKD line
Excerpt: (§1) To study the interaction between the compounds and PKG (PF3D7_1436600), AAT (PF3D7_1231400), CDPK1 (PF3D7_0217500), TKL3 (PF3D7_1349300), PP1 (PF3D7_1414400), and URP (PF3D7_0808300), cKD lines were generated by fusing the transcripts with RNA aptamers for translation regulation with the TetR/DOZI system ([Ganesan et al., 2016]). The right homology regions (RHR) of each target gene were amplified by PCR, using the primers listed in Table S1 (A), and along with the left homology regions (LHR) were fused to the re-codonized 3'-end region of the gene. Single guide RNA fragments were synthesized using the BioXP™ 3200 System (SGI-DNA; Table S1 (A)) and were cloned into the pSN054 vector ([Nasamu et al., 2019]) to install the C-terminal epitope tags V5 and 2x-hemagglutinin (HA) followed by a 10x RNA aptamer array and the TetR-DOZI expression cassette. This cassette also contained Blasticidin S-deaminase for selection in the parasites and the reporter gene Renilla luciferase (RLuc). The 3'-end of each target was re-codonized to avoid further modifications of the edited locus in the parasite via removal of the PAM site. Donor vector generation was carried out via Gibson assembly, and the final construct sequence was confirmed by restriction digests and Sanger sequencing.
(§2) Transfection into parasites was carried out by preloading erythrocytes with linearized vectors as described previously ([Deitsch et al., 2001]). Briefly, 50 μg of purified plasmid DNA was mixed with human RBC and subjected to 8 square wave electroporation pulses of 365 V for 1 ms each, separated by 0.1 s in a 0.2 cm cuvette. The plasmid DNA preloaded cells were inoculated with NF54 parasites expressing Cas9 and T7 RNA polymerase, maintained in 500 nM anhydrotetracycline (aTc, Sigma-Aldrich 37919), and drug selection with 2.5 μg/mL of Blasticidin (RPI Corp B12150-0.1) was initiated four days after transfection. Emergence of transfectants was monitored via Giemsa smears and RLuc measurements.
(§3) Synchronized ring-stage cKD parasites in varying aTc concentrations (high = 50 nM, intermediate = 1.5 nM, low = 1 nM, and no aTc) were distributed into the drug plate. No-drug treatment and treatment with a lethal dose of chloroquine (200 nM) served as reference controls.

TKL3 cKD line = settings: for IC50: Plasmodium falciparum, TKL3 cKD line
Excerpt: as §1, §2, §3

PP1 cKD line = settings: Plasmodium falciparum
Excerpt: as §1, §2, §3

URP cKD line = settings: Plasmodium falciparum
Excerpt: as §1, §2, §3

PKG cKD line = settings: for IC50: Plasmodium falciparum, PKG cKD line
Excerpt: as §1, §2, §3

CDPK1 cKD line = settings: for IC50: Plasmodium falciparum, CDPK1 cKD line
Excerpt: as §1, §2, §3

CC(C)(CN)c1nc(-c2ccc(Cl)c(O)c2)c(-c2ccncc2)[nH]1 [MMV030084]
IC50 (AAT cKD line; Control, [aTc] used 50.0): 0.0506 µM | IC50 (AAT cKD line; KD, [aTc] used 0.0): 0.0298 µM | Decrease in IC50 under AAT cKD conditions (AAT cKD line; cKD vs control): 1.7 fold | IC50 (TKL3 cKD line; Control, [aTc] used 50.0): 0.0424 µM | IC50 (TKL3 cKD line; KD, [aTc] used 0.0): 0.0886 µM | Increase in IC50 induced by TKL3 knockdown (TKL3 cKD line; cKD vs isogenic control): 2.1 fold | IC50 (PP1 cKD line; Control, [aTc] used 50.0): 0.0392 µM | IC50 (PP1 cKD line; KD, [aTc] used 1.5): 0.057 µM | IC50 (URP cKD line; Control, [aTc] used 50.0): 0.0359 µM | IC50 (URP cKD line; KD, [aTc] used 0.0): 0.0424 µM | IC50 (PKG cKD line; Control, [aTc] used 50.0): 0.0274 µM | IC50 (PKG cKD line; KD, [aTc] used 1.0): 0.0066 µM | Sensitization when PKG was knocked down (PKG cKD line; cKD vs control): 4.2 fold | IC50 (CDPK1 cKD line; Control, [aTc] used 50.0): 0.0454 µM | IC50 (CDPK1 cKD line; KD, [aTc] used 1.0): 0.0415 µM | Change in susceptibility when CDPK1 was knocked down (CDPK1 cKD line; cKD vs control): No change
